# Source: paper PMC11252457 (Acta Pharmaceutica Sinica. B, 2024)
# Key:
# [1] = system: HIV-1 mutant strain E138K; test: microbe, parasite or virus in culture; assay type: cell-based; settings: Human immunodeficiency virus 1, MT4, read-out: EC50 E138K
# [2] = system: HIV-1 mutant strain Y188L; test: microbe, parasite or virus in culture; assay type: cell-based; settings: Human immunodeficiency virus 1, MT4, read-out: EC50 Y188L
# [3] = system: HIV-1 double mutant strain F227L/V106A; test: microbe, parasite or virus in culture; assay type: cell-based; settings: Human immunodeficiency virus 1, MT4, read-out: EC50 F227L/V106A
# [4] = system: HIV-1 mutant strain Y181C; test: microbe, parasite or virus in culture; assay type: cell-based; settings: Human immunodeficiency virus 1, MT4, read-out: EC50 Y181C
# [5] = system: HIV-1 mutant strain L100I; test: microbe, parasite or virus in culture; assay type: cell-based; settings: Human immunodeficiency virus 1, MT4, read-out: EC50 L100I
# [6] = system: HIV-1 RES056 (K103N/Y181C); test: microbe, parasite or virus in culture; assay type: cell-based; settings: for EC50: Human immunodeficiency virus 1, MT4, read-out: EC50 RES056; for SI RES056: ratio of CC50/EC50, RES056
# [7] = Cytotoxicity in mock-infected MT-4 cells; settings: human
# WT HIV-1 (IIIB) = test: microbe, parasite or virus in culture; assay type: cell-based; settings: for EC50: Human immunodeficiency virus 1, IIIB, MT4, read-out: EC50 IIIB; for SI IIIB: ratio of CC50/EC50, IIIB
# [8] = system: HIV-1 mutant strain K103N; test: microbe, parasite or virus in culture; assay type: cell-based; settings: Human immunodeficiency virus 1, MT4, read-out: EC50 K103N
# recombinant WT HIV-1 RT = recombinant WT HIV-1 RT (Human immunodeficiency virus type 1 group M subtype B, UniProt P03366); test: HIV-1 RT inhibition assay; assay type: biochemical
compound,measurement,setting,value
"CCCCOP(=O)(OCCCC)c1ccc(CN2CCC(Nc3nc(Oc4c(C)cc(/C=C/C#N)cc4C)c4sccc4n3)CC2)cc1 [15d, Dibutyl (E)-(4-((4-((4-(4-(2-cyanovinyl)-2,6-dimethylphenoxy)thieno[3,2-d]pyrimidin-2-yl)amino)piperidin-1-yl)methyl)phenyl)phosphonate]",EC50,[1],678 ± 196 nM
same,EC50,[2],714 ± 157 nM
same,EC50,[3],495 ± 168 nM
same,EC50,[4],779 ± 316 nM
same,EC50,[5],265 ± 84.4 nM
same,EC50,[6],1430 ± 173 nM
same,SI RES056,[6],9
same,CC50 at 5 days,[7],12200 ± 3910 nM
same,EC50,WT HIV-1 (IIIB),173 ± 54 nM
same,SI IIIB,WT HIV-1 (IIIB),71
same,EC50,[8],188 ± 17 nM
"COP(=O)(OC)c1ccc(CN2CCC(Nc3nc(Oc4c(C)cc(/C=C/C#N)cc4C)c4sccc4n3)CC2)cc1 [15b, Dimethyl (E)-(4-((4-((4-(4-(2-cyanovinyl)-2,6-dimethylphenoxy)thieno[3,2-d]pyrimidin-2-yl)amino)piperidin-1-yl)methyl)phenyl)phosphonate]",EC50,[1],64.5 ± 31.7 nM
same,EC50,[2],478 ± 158 nM
same,EC50,[3],129 ± 83.3 nM
same,EC50,[4],193 ± 74.8 nM
same,EC50,[5],85.7 ± 28 nM
same,EC50,[6],603 ± 139 nM
same,SI RES056,[6],58
same,CC50 at 5 days,[7],34900 ± 2860 nM
same,EC50,WT HIV-1 (IIIB),19.1 ± 13.9 nM
same,SI IIIB,WT HIV-1 (IIIB),1827
same,EC50,[8],13 ± 3.8 nM
"CCOP(=O)(OCC)c1ccc(CN2CCC(Nc3nc(Oc4c(C)cc(/C=C/C#N)cc4C)c4sccc4n3)CC2)cc1 [15c, Diethyl (E)-(4-((4-((4-(4-(2-cyanovinyl)-2,6-dimethylphenoxy)thieno[3,2-d]pyrimidin-2-yl)amino)piperidin-1-yl)methyl)phenyl)phosphonate]",EC50,[1],56.6 ± 19.1 nM
same,EC50,[2],62.4 ± 22.7 nM
same,EC50,[3],27.1 ± 10.7 nM
same,EC50,[4],44.1 ± 25.6 nM
same,EC50,[5],20.1 ± 10.8 nM
same,EC50,[6],110 ± 27.2 nM
same,SI RES056,[6],74
same,CC50 at 5 days,[7],8150 ± 640 nM
same,EC50,WT HIV-1 (IIIB),26.4 ± 15.1 nM
same,SI IIIB,WT HIV-1 (IIIB),309
same,EC50,[8],15.5 ± 1.21 nM
"Cc1cc(C#N)cc(C)c1Oc1nc(NC2CCN(Cc3ccc(P(=O)(OC(C)(C)C)OC(C)(C)C)cc3)CC2)nc2ccsc12 [9g, Di-tert-butyl (4-((4-((4-(4-cyano-2,6-dimethylphenoxy)thieno[3,2-d]pyrimidin-2-yl)amino)piperidin-1-yl)methyl)phenyl)phosphonate]",EC50,[1],179 ± 19.8 nM
same,EC50,[2],445 ± 157 nM
same,EC50,[3],637 ± 492 nM
same,EC50,[4],719 ± 263 nM
same,EC50,[5],310 ± 57.8 nM
same,EC50,[6],> 16300 nM
same,SI RES056,[6],<1
same,CC50 at 5 days,[7],16300 ± 4280 nM
same,EC50,WT HIV-1 (IIIB),99.3 ± 37 nM
same,SI IIIB,WT HIV-1 (IIIB),164
same,EC50,[8],124 ± 26.2 nM
"Cc1cc(C#N)cc(C)c1Oc1nc(NC2CCN(Cc3ccc(P(=O)(OCC(C)C)OCC(C)C)cc3)CC2)nc2ccsc12 [9h, Diisobutyl (4-((4-((4-(4-cyano-2,6-dimethylphenoxy)thieno[3,2-d]pyrimidin-2-yl)amino)piperidin-1-yl)methyl)phenyl)phosphonate]",EC50,[1],124 ± 31.4 nM
same,EC50,[2],174 ± 94.9 nM
same,EC50,[3],104 ± 53.1 nM
same,EC50,[4],182 ± 40.5 nM
same,EC50,[5],135 ± 28.4 nM
same,EC50,[6],13200 nM
same,SI RES056,[6],1
same,CC50 at 5 days,[7],8780 ± 9120 nM
same,EC50,WT HIV-1 (IIIB),90.9 ± 50.8 nM
same,SI IIIB,WT HIV-1 (IIIB),97
same,EC50,[8],53.3 ± 19 nM
"Cc1cc(/C=C/C#N)cc(C)c1Oc1nc(NC2CCN(Cc3ccc(P(=O)(O)O)cc3)CC2)nc2ccsc12 [compound 16, (E)-(4-((4-((4-(4-(2-Cyanovinyl)-2,6-dimethylphenoxy)thieno[3,2-d]pyrimidin-2-yl)amino)piperidin-1-yl)methyl)phenyl)phosphonic acid]",EC50,[1],19100 nM
same,EC50,[2],133000 nM
same,EC50,[3],43500 nM
same,EC50,[4],30400 nM
same,EC50,[5],13600 nM
same,EC50,[6],170000 nM
same,SI RES056,[6],>1
same,CC50 at 5 days,[7],> 217000 nM
same,EC50,WT HIV-1 (IIIB),3810 ± 1520 nM
same,SI IIIB,WT HIV-1 (IIIB),>57
same,EC50,[8],6270 ± 1900 nM
"Cc1cc(/C=C/C#N)cc(C)c1Oc1nc(NC2CCN(Cc3ccc(P(=O)(OCC(F)(F)F)OCC(F)(F)F)cc3)CC2)nc2ccsc12 [15e, Bis(2,2,2-trifluoroethyl) (E)-(4-((4-((4-(4-(2-cyanovinyl)-2,6-dimethylphenoxy)thieno[3,2-d]pyrimidin-2-yl)amino)piperidin-1-yl)methyl)phenyl)phosphonate]",EC50,[1],423 ± 149 nM
same,EC50,[2],497 ± 49.2 nM
same,EC50,[3],338 ± 37.1 nM
same,EC50,[4],584 ± 272 nM
same,EC50,[5],140 ± 50.5 nM
same,EC50,[6],747 ± 242 nM
same,SI RES056,[6],21
same,CC50 at 5 days,[7],15600 ± 2670 nM
same,EC50,WT HIV-1 (IIIB),138 ± 55.8 nM
same,SI IIIB,WT HIV-1 (IIIB),113
same,EC50,[8],139 ± 65.7 nM
"Cc1cc(C#N)cc(C)c1Oc1nc(NC2CCN(Cc3ccc(P(=O)(OC(C)C)OC(C)C)cc3)CC2)nc2ccsc12 [9f, Diisopropyl (4-((4-((4-(4-cyano-2,6-dimethylphenoxy)thieno[3,2-d]pyrimidin-2-yl)amino)piperidin-1-yl)methyl)phenyl)phosphonate]",EC50,[1],41.3 ± 15.3 nM
same,EC50,[2],42 ± 11.7 nM
same,EC50,[3],28.4 ± 13.4 nM
same,EC50,[4],73.5 ± 69.4 nM
same,EC50,[5],29.5 ± 14.2 nM
same,EC50,[6],514 ± 57.1 nM
same,SI RES056,[6],216
same,CC50 at 5 days,[7],111000 ± 33600 nM
same,EC50,WT HIV-1 (IIIB),24.8 ± 14.8 nM
same,SI IIIB,WT HIV-1 (IIIB),4476
same,EC50,[8],22.6 ± 7.83 nM
"Cc1cc(/C=C/C#N)cc(C)c1Oc1nc(NC2CCN(Cc3ccc(P(=O)(OC(C)(C)C)OC(C)(C)C)cc3)CC2)nc2ccsc12 [15g, Di-tert-butyl (E)-(4-((4-((4-(4-(2-cyanovinyl)-2,6-dimethylphenoxy)thieno[3,2-d]pyrimidin-2-yl)amino)piperidin-1-yl)methyl)phenyl)phosphonate]",EC50,[1],59.7 ± 13.1 nM
same,EC50,[2],55.3 ± 22.2 nM
same,EC50,[3],43.7 ± 7.52 nM
same,EC50,[4],46.4 ± 7.56 nM
same,EC50,[5],25.8 ± 15.8 nM
same,EC50,[6],197 ± 30.5 nM
same,SI RES056,[6],38
same,CC50 at 5 days,[7],7400 ± 2250 nM
same,EC50,WT HIV-1 (IIIB),20.6 ± 8.31 nM
same,SI IIIB,WT HIV-1 (IIIB),359
same,EC50,[8],16.9 ± 7.68 nM
"COP(=O)(OC)c1ccc(CN2CCC(Nc3nc(Oc4c(C)cc(C#N)cc4C)c4sccc4n3)CC2)cc1 [9b, Dimethyl (4-((4-((4-(4-cyano-2,6-dimethylphenoxy)thieno[3,2-d]pyrimidin-2-yl)amino)piperidin-1-yl)methyl)phenyl)phosphonate]",EC50,[1],14.9 ± 8.6 nM
same,EC50,[2],9.95 ± 5.61 nM
same,EC50,[3],8.14 ± 1.85 nM
same,EC50,[4],15.3 ± 10.1 nM
same,EC50,[5],10.8 ± 3.42 nM
same,EC50,[6],193 ± 40.4 nM
same,SI RES056,[6],282
same,CC50 at 5 days,[7],54500 ± 1290 nM
same,IC50,recombinant WT HIV-1 RT,350 ± 50 nM
same,EC50,WT HIV-1 (IIIB),3.63 ± 1.15 nM
same,SI IIIB,WT HIV-1 (IIIB),"15,014"
same,EC50,[8],3.72 ± 1.27 nM
"Cc1cc(C#N)cc(C)c1Oc1nc(NC2CCN(Cc3ccc(P(C)(C)=O)cc3)CC2)nc2ccsc12 [9a, 4-((2-((1-(4-(Dimethylphosphoryl)benzyl)piperidin-4-yl)amino)thieno[3,2-d]pyrimidin-4-yl)oxy)-3,5-dimethylbenzonitrile]",EC50,[1],7.33 ± 1.36 nM
same,EC50,[2],11.3 ± 0.87 nM
same,EC50,[3],21.5 ± 13.5 nM
same,EC50,[4],12.8 ± 2.62 nM
same,EC50,[5],7.01 ± 1.76 nM
same,EC50,[6],257 ± 95.2 nM
same,SI RES056,[6],837
same,CC50 at 5 days,[7],215000 ± 1170 nM
same,IC50,recombinant WT HIV-1 RT,310 ± 10 nM
same,EC50,WT HIV-1 (IIIB),2.2 ± 0.33 nM
same,SI IIIB,WT HIV-1 (IIIB),"97,727"
same,EC50,[8],2.66 ± 0.85 nM
"CCOP(=O)(OCC)c1ccc(CN2CCC(Nc3nc(Oc4c(C)cc(C#N)cc4C)c4sccc4n3)CC2)cc1 [9c, Diethyl (4-((4-((4-(4-cyano-2,6-dimethylphenoxy)thieno[3,2-d]pyrimidin-2-yl)amino)piperidin-1-yl)methyl)phenyl)phosphonate]",EC50,[1],12.3 ± 1.98 nM
same,EC50,[2],17 ± 11 nM
same,EC50,[3],14.3 ± 4.55 nM
same,EC50,[4],13.2 ± 5.6 nM
same,EC50,[5],11.5 ± 3.27 nM
same,EC50,[6],445 ± 109 nM
same,SI RES056,[6],263
same,CC50 at 5 days,[7],117000 ± 7750 nM
same,IC50,recombinant WT HIV-1 RT,760 ± 150 nM
same,EC50,WT HIV-1 (IIIB),6.9 ± 1.92 nM
same,SI IIIB,WT HIV-1 (IIIB),"16,957"
same,EC50,[8],≤ 4.62 nM
